{
  "source": "PubChem BioAssay AID1259411",
  "about": "(Chemical Carcinogenesis Research Information System (CCRIS), 2018)",
  "test_system": "rodent carcinogenicity bioassays, tumor incidence",
  "assay": "CCRIS carcinogenicity studies",
  "summary_of_the_method": "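Archive of carcinogenicity, mutagenicity, tumor promotion and tumor inhibition results drawn from journals, NCI reports and other sources, expert-reviewed; covers 1985-2011 and is no longer updated.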",
  "note": "Calls of active or inactive are those of the source. No rule for the calls is given here.",
  "data": [
    {"molecule": "C1CCC2CCCCC2C1", "note": "(stereo not given)", "values": [
      {"measurement": "carcinogen call", "setting": "Species: MOUSE, Strain/Sex: B6C3F1/FEMALE (50/GROUP), Route: INHALATION, Dose: 0, 25, 100, 400 PPM 6 HR/D, 5 D/WK FOR 105 WKS (STUDY DURATION: 105 WKS), Dose: 0, 25, 100, 400 PPM 6 HR/D, 5 D/WK FOR 105 WKS (STUDY DURATION: 105 WKS), Tumor Site: Type of Lesion: LIVER: HEPATOCELLULAR ADENOMA OR CARCINOMA (22%; 54%; 28%; 42%)", "value": "equivocal; ntp says marginal increase in uterine tumors but p values did not rea"},
      {"measurement": "carcinogen call", "setting": "Species: MOUSE, Strain/Sex: B6C3F1/MALE (50/GROUP), Route: INHALATION, Dose: 0, 25, 100, 400 PPM 6 HR/D, 5 D/WK FOR 105 WKS (STUDY DURATION: 105 WKS), Dose: 0, 25, 100, 400 PPM 6 HR/D, 5 D/WK FOR 105 WKS (STUDY DURATION: 105 WKS)", "value": "inactive; negative"},
      {"measurement": "carcinogen call", "setting": "Species: RAT, Strain/Sex: F344/FEMALE, Route: INHALATION, Dose: 0, 25, 100, 400 PPM IN AIR, 6 H PLUS 12 MIN/D, 5 D/WK FOR 2 YR (STUDY DURATION: 2 YR), Dose: 0, 25, 100, 400 PPM IN AIR, 6 H PLUS 12 MIN/D, 5 D/WK FOR 2 YR (STUDY DURATION: 2 YR)", "value": "inactive; negative"},
      {"measurement": "carcinogen call", "setting": "Species: RAT, Strain/Sex: F344/MALE, Route: INHALATION, Dose: 0, 25, 50, 100, 400 PPM IN AIR , 6 H PLUS 12 MIN/D, 5 D/WK FOR 2 YR (STUDY DURATION: 2 YR), Dose: 0, 25, 50, 100, 400 PPM IN AIR , 6 H PLUS 12 MIN/D, 5 D/WK FOR 2 YR (STUDY DURATION: 2 YR), Tumor Site: Type of Lesion: KIDNEY: RENAL TUBULE ADENOMA, RENAL TUBULE ADENOMA OR CARCINOMA", "value": "active; positive"},
      {"measurement": "carcinogen call", "setting": "Species: RAT, Strain/Sex: F344/N/FEMALE (50/GROUP), Route: INHALATION, Dose: 0, 25, 100, 400 PPM 6 HR/D, 5 D/WK FOR 105 WKS (STUDY DURATION: 105 WKS), Dose: 0, 25, 100, 400 PPM 6 HR/D, 5 D/WK FOR 105 WKS (STUDY DURATION: 105 WKS)", "value": "inactive; negative"},
      {"measurement": "carcinogen call", "setting": "Species: RAT, Strain/Sex: F344/N/MALE (20/GROUP), Route: INHALATION, Dose: 400 PPM 6 HR/D, 5 D/WK FOR 105 WKS (STUDY DURATION: 105 WKS), Tumor Site: Type of Lesion: KIDNEY: RENAL TUBULE ADENOMA OR CARCINOMA (30%), ADRENAL: PHEOCHROMOCYTOMA (40%)", "value": "active; positive"},
      {"measurement": "carcinogen call", "setting": "Species: RAT, Strain/Sex: F344/N/MALE (50/GROUP), Route: INHALATION, Dose: 0, 25, 50, 100 PPM 6 HR/D, 5 D/WK FOR 105 WKS (STUDY DURATION: 105 WKS), Dose: 0, 25, 50, 100 PPM 6 HR/D, 5 D/WK FOR 105 WKS (STUDY DURATION: 105 WKS), Tumor Site: Type of Lesion: KIDNEY: RENAL TUBULE ADENOMA OR CARCINOMA (2%; 6%; 14%; 24%), ADRENAL: BENIGN OR MALIGNANT PHEOCHROMOCYTOMA (16%, 18%, 2, Tumor Site: Type of Lesion: KIDNEY: RENAL TUBULE ADENOMA OR CARCINOMA (2%; 6%; 14%; 24%), ADRENAL: BENIGN OR MALIGNANT PHEOCHROMOCYTOMA (16%, 18%, 2", "value": "active; positive; alpha-2u-globulin, incidences of renal tubule regeneration and granula"}
    ]},
    {"molecule": "CC(=O)OC/N=[N+](/C)[O-]", "values": [
      {"measurement": "carcinogen call", "setting": "Species: FISH, Strain/Sex: MOSQUITOFISH/MALE, FEMALE, Route: IMMERSION, Dose: 0, 10 MG/L IN WATER FOR 2 HR EXPOSURE (STUDY DURATION: 40 WK), Tumor Site: Type of Lesion: LIVER: TUMOR", "value": "active; positive"},
      {"measurement": "carcinogen call", "setting": "Species: MONKEY, Strain/Sex: AFRICAN GREEN/MALE,FEMALE, Route: INTRAPERITONEAL, Dose: 1.94-9.66 G TOTAL DOSE, 1/WK FOR UP TO 89 MO, Tumor Site: Type of Lesion: LIVER: HEPATOCELLULAR CARCINOMA, HEMANGIOSARCOMA, KIDNEY: RENAL CELL CARCINOMA, ESOPHAGUS: SQUAMOUS CELL CARCINOMA, CECU, Tumor Site: Type of Lesion: LIVER: HEPATOCELLULAR CARCINOMA, HEMANGIOSARCOMA, KIDNEY: RENAL CELL CARCINOMA, ESOPHAGUS: SQUAMOUS CELL CARCINOMA, CECU", "value": "active; positive"},
      {"measurement": "carcinogen call", "setting": "Species: MONKEY, Strain/Sex: CYNOMOLGUS/MALE,FEMALE, Route: INTRAPERITONEAL, Dose: 1.94-9.66 G TOTAL DOSE, 1/WK FOR UP TO 89 MO, Tumor Site: Type of Lesion: LIVER: HEPATOCELLULAR CARCINOMA, HEMANGIOSARCOMA, KIDNEY: RENAL CELL CARCINOMA, ESOPHAGUS: SQUAMOUS CELL CARCINOMA, CECU, Tumor Site: Type of Lesion: LIVER: HEPATOCELLULAR CARCINOMA, HEMANGIOSARCOMA, KIDNEY: RENAL CELL CARCINOMA, ESOPHAGUS: SQUAMOUS CELL CARCINOMA, CECU", "value": "active; positive"},
      {"measurement": "carcinogen call", "setting": "Species: MONKEY, Strain/Sex: RHESUS/MALE,FEMALE, Route: INTRAPERITONEAL, Dose: 1.94-9.66 G TOTAL DOSE, 1/WK FOR UP TO 89 MO, Tumor Site: Type of Lesion: LIVER: HEPATOCELLULAR CARCINOMA, HEMANGIOSARCOMA, KIDNEY: RENAL CELL CARCINOMA, ESOPHAGUS: SQUAMOUS CELL CARCINOMA, CECU, Tumor Site: Type of Lesion: LIVER: HEPATOCELLULAR CARCINOMA, HEMANGIOSARCOMA, KIDNEY: RENAL CELL CARCINOMA, ESOPHAGUS: SQUAMOUS CELL CARCINOMA, CECU", "value": "active; positive"},
      {"measurement": "carcinogen call", "setting": "Species: MOUSE, Route: SUBCUTANEOUS, Dose: 0.2-0.4 MG, SINGLE DOSE, Tumor Site: Type of Lesion: UNSPECIFIED: TUMOR", "value": "active; positive"},
      {"measurement": "carcinogen call", "setting": "Species: MOUSE, Strain/Sex: BALB/FEMALE, Route: DERMAL, Dose: 0, 0.5 MG PAINTED ON ANAL REGION 3/WK FOR 24 WK (STUDY DURATION: 24 WK), Tumor Site: Type of Lesion: PERIANAL SEBACEOUS GLAND: SQUAMOUS CELL CARCINOMA, ADENOMA", "value": "active; positive"},
      {"measurement": "carcinogen call", "setting": "Species: MOUSE, Strain/Sex: BALB/MALE, Route: DERMAL, Dose: 0, 0.5 MG PAINTED ON ANAL REGION 3/WK FOR 24 WK (STUDY DURATION: 30 WK), Tumor Site: Type of Lesion: PERIANAL SEBACEOUS GLAND: SQUAMOUS CELL CARCINOMA, BLOOD VESSELS: HEMANGIOMA OR HEMANGIOENDOTHELIOMA", "value": "active; positive"},
      {"measurement": "carcinogen call", "setting": "Species: RAT, Route: INTRAPERITONEAL, SUBCUTANEOUS, Tumor Site: Type of Lesion: BILE DUCT, INTESTINES, KIDNEY, Tumor Site: Type of Lesion: BILE DUCT, INTESTINES, KIDNEY", "value": "active; positive"},
      {"measurement": "carcinogen call", "setting": "Species: RAT, Route: INTRAVENOUS, ORAL, Tumor Site: Type of Lesion: INTESTINES, KIDNEY, LIVER, Tumor Site: Type of Lesion: INTESTINES, KIDNEY, LIVER", "value": "active; positive"},
      {"measurement": "carcinogen call", "setting": "Species: RAT, Route: RECTAL, Tumor Site: Type of Lesion: INTESTINES, KIDNEY", "value": "active; positive"},
      {"measurement": "carcinogen call", "setting": "Species: RAT, Route: SUBCUTANEOUS, Dose: 12.5 MG TOTAL DOSE, 4 DOSES OVER 3 WK, Tumor Site: Type of Lesion: INTESTINES: NEOPLASMS, BILE DUCT: ADENOMA", "value": "active; positive"},
      {"measurement": "carcinogen call", "setting": "Species: RAT, Strain/Sex: DONRYU/MALE, Route: RECTAL, Dose: 1 MG, 1/D FOR 7-26 D, Tumor Site: Type of Lesion: INTESTINES (LARGE): ADENOCARCINOMA, KIDNEY: NEPHROBLASTOMA", "value": "active; positive"}
    ]},
    {"molecule": "CC1=CC(C)(C)Nc2ccccc21", "values": [
      {"measurement": "carcinogen call", "setting": "Species: MOUSE, Strain/Sex: B6C3F1/FEMALE, Route: DERMAL, Dose: 0, 3.6, 6, 10 MG/KG BW IN ACETONE 5 D/WK FOR 103 WK (STUDY DURATION: 103 WK), Dose: 0, 3.6, 6, 10 MG/KG BW IN ACETONE 5 D/WK FOR 103 WK (STUDY DURATION: 103 WK)", "value": "inactive; negative"},
      {"measurement": "carcinogen call", "setting": "Species: MOUSE, Strain/Sex: B6C3F1/MALE, Route: DERMAL, Dose: 0, 3.6, 6, 10 MG/KG BW IN ACETONE 5 D/WK FOR 103 WK (STUDY DURATION: 103 WK), Dose: 0, 3.6, 6, 10 MG/KG BW IN ACETONE 5 D/WK FOR 103 WK (STUDY DURATION: 103 WK)", "value": "inactive; negative"},
      {"measurement": "carcinogen call", "setting": "Species: RAT, Strain/Sex: F344/FEMALE, Route: DERMAL, Dose: 0, 36, 60, 100 MG/KG BW IN ACETONE 5 D/WK FOR 104 WK (STUDY DURATION: 106 WK), Dose: 0, 36, 60, 100 MG/KG BW IN ACETONE 5 D/WK FOR 104 WK (STUDY DURATION: 106 WK)", "value": "inactive; negative"},
      {"measurement": "carcinogen call", "setting": "Species: RAT, Strain/Sex: F344/MALE, Route: DERMAL, Dose: 0, 36, 60, 100 MG/KG BW IN ACETONE 5 D/WK FOR 103 WK (STUDY DURATION: 105 WK), Dose: 0, 36, 60, 100 MG/KG BW IN ACETONE 5 D/WK FOR 103 WK (STUDY DURATION: 105 WK), Tumor Site: Type of Lesion: KIDNEY(RENAL TUBULE): ADENOMA OR CARCINOMA", "value": "active; positive"}
    ]},
    {"molecule": "C[C@@H]1O[C@@H]1Cl", "values": [
      {"measurement": "carcinogen call", "setting": "Species: MOUSE, Strain/Sex: ICR/FEMALE, Route: DERMAL, Dose: 10 MG IN 0.1 ML ACETONE 3/WK FOR LIFE, Tumor Site: Type of Lesion: INTEGUMENTARY SYSTEM (SKIN): PAPILLOMA, SQUAMOUS CELL CARCINOMA", "value": "active; positive"}
    ]},
    {"molecule": "O=Cc1ccc(CCl)o1", "values": [
      {"measurement": "carcinogen call", "setting": "Species: MOUSE, Strain/Sex: B6C3F1/MALE, Route: INTRAPERITONEAL, Dose: 0, 0.1, 0.25 UMOL/G IN 5 µL DMSO/G BW ONCE (STUDY DURATION: 10 MO), Dose: 0, 0.1, 0.25 UMOL/G IN 5 µL DMSO/G BW ONCE (STUDY DURATION: 10 MO), Tumor Site: Type of Lesion: LIVER: TUMOR", "value": "active; positive"}
    ]}
  ]
}
